The source of these data is BindingDB's records for doi:10.1124/mol.53.2.195 (Suntory Institute For Bioorganic Research, 1998).

For one test, the target named is Glutamate receptor 3 (Rattus norvegicus, UniProt P19492).
Test [1] addresses Glutamate receptor ionotropic, kainate 1 (Rattus norvegicus, UniProt P22756).
Test [2] has as its target Glutamate receptor ionotropic, NMDA 1 (Rattus norvegicus, UniProt P35439).

Some results are limits rather than exact numbers.

Sequence of Glutamate receptor ionotropic, kainate 1 (P22756 whole entry): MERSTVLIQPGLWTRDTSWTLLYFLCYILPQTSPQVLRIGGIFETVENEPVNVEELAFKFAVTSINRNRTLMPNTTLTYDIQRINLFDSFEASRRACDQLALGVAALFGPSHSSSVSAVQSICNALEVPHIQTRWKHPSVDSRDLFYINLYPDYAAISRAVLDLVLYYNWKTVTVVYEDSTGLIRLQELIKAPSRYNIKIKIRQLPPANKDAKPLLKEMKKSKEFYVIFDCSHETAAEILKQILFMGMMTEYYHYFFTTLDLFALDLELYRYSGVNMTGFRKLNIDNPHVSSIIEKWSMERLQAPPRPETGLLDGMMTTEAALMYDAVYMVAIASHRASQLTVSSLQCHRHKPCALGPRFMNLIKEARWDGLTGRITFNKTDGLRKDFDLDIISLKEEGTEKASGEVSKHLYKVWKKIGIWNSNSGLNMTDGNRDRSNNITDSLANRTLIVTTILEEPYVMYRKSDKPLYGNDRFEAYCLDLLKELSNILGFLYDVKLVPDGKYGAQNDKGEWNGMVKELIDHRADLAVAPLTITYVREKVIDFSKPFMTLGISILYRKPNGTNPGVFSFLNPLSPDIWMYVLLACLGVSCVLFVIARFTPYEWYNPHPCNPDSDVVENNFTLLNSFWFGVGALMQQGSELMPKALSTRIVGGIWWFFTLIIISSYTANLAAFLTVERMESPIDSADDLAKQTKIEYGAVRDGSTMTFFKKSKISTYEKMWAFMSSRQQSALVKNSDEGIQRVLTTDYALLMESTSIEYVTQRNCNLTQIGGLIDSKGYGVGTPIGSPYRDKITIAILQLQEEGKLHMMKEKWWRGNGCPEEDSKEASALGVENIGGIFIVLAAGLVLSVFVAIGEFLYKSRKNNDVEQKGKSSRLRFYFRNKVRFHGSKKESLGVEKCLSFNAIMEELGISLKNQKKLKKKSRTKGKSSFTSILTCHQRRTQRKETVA
Sequence of Glutamate receptor 3 (P19492 whole entry): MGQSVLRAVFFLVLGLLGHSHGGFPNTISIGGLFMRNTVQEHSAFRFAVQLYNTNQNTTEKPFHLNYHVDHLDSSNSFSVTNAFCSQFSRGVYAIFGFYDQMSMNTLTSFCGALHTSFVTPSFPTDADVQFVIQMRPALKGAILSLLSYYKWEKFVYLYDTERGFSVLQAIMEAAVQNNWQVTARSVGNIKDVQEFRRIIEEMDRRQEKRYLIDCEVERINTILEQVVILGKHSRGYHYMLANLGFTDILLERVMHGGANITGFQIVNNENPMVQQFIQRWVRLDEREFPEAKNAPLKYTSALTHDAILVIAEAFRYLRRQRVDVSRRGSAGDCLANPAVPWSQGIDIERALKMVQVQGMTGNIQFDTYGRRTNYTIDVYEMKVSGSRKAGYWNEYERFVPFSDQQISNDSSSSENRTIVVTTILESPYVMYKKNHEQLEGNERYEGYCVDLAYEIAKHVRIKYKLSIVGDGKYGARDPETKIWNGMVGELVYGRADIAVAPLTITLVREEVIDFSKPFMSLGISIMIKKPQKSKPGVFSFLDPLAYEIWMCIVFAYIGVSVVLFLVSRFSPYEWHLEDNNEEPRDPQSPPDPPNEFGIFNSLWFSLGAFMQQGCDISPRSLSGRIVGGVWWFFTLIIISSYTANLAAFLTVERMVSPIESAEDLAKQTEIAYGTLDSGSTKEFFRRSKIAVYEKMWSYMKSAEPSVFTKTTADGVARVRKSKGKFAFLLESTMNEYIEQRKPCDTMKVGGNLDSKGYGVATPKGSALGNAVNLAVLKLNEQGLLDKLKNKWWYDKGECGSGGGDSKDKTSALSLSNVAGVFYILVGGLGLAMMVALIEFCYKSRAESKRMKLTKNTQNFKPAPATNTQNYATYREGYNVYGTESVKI

One may read the Ki as a measure of affinity in units of concentration, obtained from inhibition or displacement. Turning to `N[C@H](C(=O)O)[C@H](O)C(=O)O` (racemic) [DL-THA], the Ki (at Glutamate receptor 3; in test [1]; in test [2]) was more than 10 µM throughout.
With `O=C(O)[C@H]1CN[C@H](C(=O)O)C1` [t-PDC], the Ki (on Glutamate receptor 3; in test [1]; in test [2]) was more than 10 µM throughout.
Regarding `CN[C@H](CC(=O)O)C(=O)O` [NMDA], the Ki in test [2] came out at 5.5 µM.
Regarding `N[C@H](C(=O)O)[C@H](OCc1ccccc1)C(=O)O` [DL-TBOA], the Ki (on Glutamate receptor 3; in test [1]; in test [2]) was more than 10 µM each time.
Regarding `CC(C)[C@H]1CN[C@H](C(=O)O)[C@H]1CC(=O)O` [dihydrokainic acid], the Ki on Glutamate receptor 3 was more than 10 µM; in test [1] it was 6 µM; in test [2], more than 10 µM.
In test [2], `N[C@H](C(=O)O)[C@H]1C[C@H]1C(=O)O` [L-CCG-IV] registered a Ki of 0.008 µM. This lies in the single-digit nanomolar range.
For the compound `N[C@H](C(=O)O)[C@H](OC(=O)c1ccccc1)C(=O)O` (racemic) [DL-TBzOAsp], the Ki (at Glutamate receptor 3; in test [1]; in test [2]) was more than 10 µM in each case.
